Experimental data from patent US11975009B2, “Use of zinc porphyrin as an antimicrobial” (ZNABLE LLC, priority 2022, dated 2024).

Tests used:
SA biofilm = SA biofilm model with bioluminescence reporter; type: cell-based, Staphylococcus aureus; settings: escalating doses of ZnPor vs PBS
Experimental: Representative of one experiment.
Biofilm formation was an important defense mechanism utilized by bacteria and was associated with bacterial phenotypes that predict worse clinical outcomes in CF. A biofilm model was deployed using an SA strain with genetically embedded bioluminescence reporter to gauge efficacy of ZnPor against SA biofilm. Plastic plates were coated with bioluminescent SA and treated with escalating doses of ZnPor or PBS. Bioluminescence was measured via spectrophotometer.

PsA [1] = assay: Testing for bacterial resistance; type: cell-based, Pseudomonas aeruginosa
Excerpt: One of the major concerns of developing novel small molecule antimicrobials is the potential for bacteria to develop resistance. […] The mechanism of action and target are believed to explain the absence of resistance. An MBC:MIC ratio of 2 which is what we derived from kill curves, was considered an indication of lack of resistance.

PsA [2] = assay: Mouse model of PsA lung infection; type: in vivo, mice
Experimental: Mice were infected with PsA intratracheally, and subsequently treated with 125 μM ZnPor intratracheally. Bronchoalveolar lavage (BAL) was collected at 16 h. Bacterial titers were measured in BAL. *p<0.05, Mann-Whitney U. Representative of one experiment.
Based on in vitro experiments showing significant bactericidal activity of ZnPor against PsA and minimal toxicity of ZnPor in vitro in airway and alveolar epithelial cells as well as in monocytes/macrophages, the next experiments examined efficacy and safety of ZnPor in PsA infection in mice. Wildtype (WT) mice were anesthetized and infected with 5×10^6 CFU PsA via intratracheal route. Immediately following infection, mice were anesthetized again and treated with ZnPor (125 μM) or PBS (negative control). Mice were monitored for clinical signs of toxicity. At 16 h, mice were sacrificed and bronchoalveolar lavage (BAL) and lungs were isolated.

[3] = tested on: Pseudomonas aeruginosa (GN); assay: Killing activity against a range of bacteria; type: cell-based
[4] = tested on: Mycobacterium smegmatis (proxy for M. tuberculosis); assay: Killing activity against a range of bacteria; type: cell-based
phage PEV2 = assay: Inactivation of phage PEV2 (PFU titer); design: species or system Pseudomonas phage PEV2
Experimental: Phage PEV2 was diluted to 10^9 PFU/mL in phage buffer and treated with ZnPor (25 μg/mL) for a total of 4 hours. A 300 W light was used to photoactivate ZnPor_light treatments for 20 minutes. Measurements of plaque forming units (PFU/mL) were taken at each timepoint by serially diluting phage to determine titer using a soft agar overlay protocol. Data from 3 separate experiments represents total mean±standard error, total (n=8).

Listeria monocytogenes = assay: Killing of Listeria inside macrophages; type: cell-based; settings: macrophages treated with ZnPor (II) vs control
Experimental: A growing number of bacteria are being discovered as having the ability to enter and grow within human cells. The model bacterium used to test this was: Listeria monocytogenes. This bacterium is well known for its ability to survive inside human cells and using actin tails (sourced from the host cell) to propel themselves out of one cell and into another. The L. monocytogenes bacteria were incubated with macrophages. […] Then macrophages were cracked open and plated on antibiotic plates to get a viable count of the number of cells taken up (control) and compared to macrophages treated with ZnPor (II).

A549 cells = assay: Lung cell toxicity, traditional cell culture; type: cell-based, human; settings: concentration exceeding therapeutic range
Excerpt: Sample represented in graph is a traditional cell culture model and the cells were A549 cells—human lung epithelial cells.

Drosophila melanogaster = settings: flies fed ZnPor (II); Yoho et al. 2014; cited from earlier work
[5] = tested on: planktonic PsA PAO1 cells; assay: Syber Green entry into planktonic cells (permeabilization); type: cell-based, Pseudomonas aeruginosa; settings: pre-treated planktonic PsA cells
Experimental: Syber Green™ can pass through the cell wall into PsA cells pre-treated with ZnPor (II) at concentrations as low as 1 μg/mL; this is below the MIC (4 ug/m). Cells treated with ZnPor (II) allowed the entry of the Syber Green molecule even at sub-MIC concentrations of ZnPor (II).

PsA PAO1 biofilm = assay: PAO1 biofilm on coupons, LIVE/DEAD stain, confocal microscopy; type: cell-based, Pseudomonas aeruginosa
Experimental: FIG. 2A: ZnPor (alone) stained biofilm. […] Length of size bar: […].
FIGS. 15A-15B show the biofilms of PAO1 treated with various concentrations of ZnPor (II) and in combination with PEV2 phage. Biofilms of strain PAO1 were grown on coupons cut from polyethylene in MSG media for approximately 16-18 hours. Overnight media was replaced with fresh PBS and were treated with (FIG. 15B) ZnPor (II) only at concentrations of 5, 10 or 25 μg/mL, and incubated for 2 h, (FIG. 15A) phage PEV2 only (MOI=10:1) for 4 h, or (FIG. 15B) ZnPor (II) treatment for 2 h followed by the addition of phage PEV2 (MOI of 10:1) and incubated for an additional 4 h. Coupons were gently washed in distilled water and were treated with LIVE/DEAD™ stain. All coupons were imaged using confocal laser scanning […] microscopy (CLSM) at 60×. Green=LIVE Red=DEAD.
PAO1 was grown overnight in MSG at 37 C with shaking. CDC Bioreactors with PE coupons were inoculated to a final OD of 0.15 in cation adjusted Mueller Hinton broth. Biofilms were grown 16-18 h at 37 degrees C. with 50 rpm stirring. Control biofilm is shown (FIG. 20A). All overnight media in bioreactors were replaced with fresh PBS. Bioreactors treated with ZnPor (II) at 4 μg/mL were left to incubate for 2 hours without stirring. Bioreactors treated with either whole PEV2 phage or the purified DNA genome of PEV2 were incubated for 24 hours without stirring. […]

PsA PAO1 = assay: Minimum inhibitory concentration (MIC) of ZnPor (II)

Question: For “meso-5,10,15-tris(N-methyl-4-pyridyl)-20-(pentafluorophenyl)porphyrinatozinc(II), tris-p-toluene sulfonate [ZnPor]”, which “non-toxic level relative to the MBC for S. aureus MRSA strain” value (human lung or skin cells) is on record?
Answer: over 100 times

Question: And the toxicity (human lung or skin cells)?
Answer: no toxicity

Question: And the “biofilm formation by bioluminescence” value (SA biofilm)?
Answer: significantly less biofilm formation

Question: What about the “colony growth on LB plates” value (PsA [1]; 2×, 4× and 8×MIC concentration of ZnPor with PsA cell) of the same substance?
Answer: No colony growth

Question: And the resistance (PsA [1]; during 8 years of testing)?
Answer: no resistance was observed

Question: And the “bacterial titers in BAL and lung homogenates” value (PsA [2]; WT mice, 5×10^6 CFU PsA intratracheal, ZnPor 125 μM, 16 h)?
Answer: significantly decreased PsA infection

Question: And the clinical toxicity (PsA [2]; ZnPor-treated versus untreated mice, 125 μM)?
Answer: No clinical toxicity was observed

Question: What about the killing [3] of the same substance?
Answer: effective at killing

Question: What about the killing [4] of the same substance?
Answer: effective at killing

Question: What about the “effect of photoactivation on killing” value (phage PEV2; with photoactivation) of the same substance?
Answer: quicker and greater killing

Question: What about the inactivation of viruses (phage PEV2; without light activation) of the same substance?
Answer: able to inactivate viruses without light activation

Question: What about the “effect on bacteriophage PEV2” value (phage PEV2; without photoactivation) of the same substance?
Answer: inactivates

Question: And the “number of Listeria cells in the macrophages” value (Listeria monocytogenes)?
Answer: a log reduction

Question: What about the toxicity (A549 cells) of the same substance?
Answer: No toxicity was observed

Question: What about the “toxicity to Drosophila” value (Drosophila melanogaster) of the same substance?
Answer: not toxic

Question: And the “lowest ZnPor (II) concentration allowing Syber Green entry” value [5]?
Answer: 1 µg/mL

Question: What about the biofilm clearing (PsA PAO1 biofilm; 25 μg/mL ZnPor alone, 2 h) of the same substance?
Answer: almost complete clearing of the biofilm

Question: And the “LIVE/DEAD state of biofilm” value (PsA PAO1 biofilm; pre-treated with ZnPor (II) 4 μg/mL before adding PEV2 whole phage)?
Answer: only dead cells

Question: And the MIC (PsA PAO1)?
Answer: 4 µg/mL
